Results reported in PMC5548745, “Agonist-induced dimer dissociation as a macromolecular step in G protein-coupled receptor signaling” (Nature Communications, 2017).
“Also recorded” adds a separate entry of the source.

How the values were obtained:
[1] = system: ERK1/2 phosphorylation in MLE-12 cells; experiment: basal P-ERK1/2 immunoblot, MLE-12 cells expressing minigenes; format: cell-based, mouse; conditions: transient transfection of minigene
Experimental: (§1) MLE-12 or HEK293 cells (ATCC) were plated in a 24- or 48-well plate at a density of 100,000 or 50,000 cells/well, respectively. After 24 h, cells were transfected using Lipofectamine 2000 according to the manufacturer’s instructions. Cells were stimulated (24 h post-transfection) with 300 ng ml^−1 recombinant carrier-free WNT-5A (CF WNT-5A; R&D Systems). Stimulation was stopped by the addition of lysis buffer (1% NP-40, 150 mM NaCl, 50 mM Tris/HCl pH 8). Lysates were sonicated and analyzed by 7.5 or 10% Mini-PROTEAN TGX precast polyacrylamide gels (Bio-Rad) and transferred to PVDF membranes using the Trans-Blot Turbo system (Bio-Rad). […] Proteins were detected with horseradish peroxidase-conjugated secondary antibodies (goat anti-rabbit and goat anti-mouse (Pierce)) and Clarity Western ECL Blotting Substrate (Bio-Rad). […]
(§2) Quantification of P-ERK1/2 is normalized to β-actin as loading control. […] P-ERK1/2, HA-TM1/5 and β-actin as loading control were assessed by PAGE/immunoblotting. […]

[2] = system: protease-activated receptor (endogenous); experiment: thrombin-induced P-ERK1/2 in HEK293 cells with minigenes; format: cell-based; conditions: thrombin 10 U/ml, 10 min
[3] = system: HEK293 and MLE-12 cell membrane; experiment: immunocytochemistry of HA-tagged minigenes without permeabilization; format: cell-based; conditions: 4% paraformaldehyde, no permeabilization
Source text: Supplementary Figure 7: Control experiments for assaying receptor dimerization by dcFRAP and expression of minigenes. (a) HEK293 and MLE-12 cells were transfected with HA-tagged TM1/5 minigenes, fixed in 4% paraformaldehyde and stained with an anti-HA antibody/Cy2-conjugated secondary antibody in the absence of cell permeabilization by detergents. […]
confirms both the membrane expression of the minigenes as well as the correct orientation of the peptides with the N-terminal signal sequence/HA tag on the extracellular side accessible to the primary antibody. Images were taken with a 40x objective using the 488 nm laser line on a Zeiss LSM 710 confocal microscope. Size bars – 10 µm. (b) Bar graph compares the immobile fraction in dcFRAP experiments of FZD6-GFP after CL of V5-FZD6-mCherry in cells expressing minigenes corresponding to either TM1 (control) or TM5 (competing at the dimer interface). P= […]
Error bars give s.e.m.; * P<0.05 (two-tailed t-test). (c) Transient transfection of TM5, […]
abrogation of dimer formation, in the presence of TM5, reduces receptor-mediated signaling. (d) Bar graph summarizes four independent immunoblotting experiments. P-ERK1/2 in TM1 expressing MLE-12 cells were normalized to 100%. […]
as §2

[4] = system: lysophosphatidic acid receptor (endogenous); experiment: lysophosphatidic acid-induced P-ERK1/2 in HEK293 cells with minigenes; format: cell-based; conditions: lysophosphatidic acid 10 µM, 10 min
Experimental: as §1, with “Cells were stimulated (24 h post-transfection) with 300 ng ml^−1 recombinant carrier-free WNT-5A (CF WNT-5A; R&D Systems).” left out
as §2

[5] = system: FZD6–FZD6 dimer; experiment: dcFRAP of V5-FZD6-mCherry/FZD6-GFP (FZD6 dimerization); format: cell-based, human; conditions: HEK293; co-transfection of V5-FZD6-mCherry, FZD6-GFP and minigene; N=43 TM1, N=66 TM5
Experimental: For dual color FRAP experiments, cells grown in four compartment 35 mm glass bottom dishes were washed three times with BE buffer[19] (150 mM NaCl, 2.5 mM KCl, 10 mM HEPES, 12 mM glucose, 0.5 mM CaCl2, and 0.5 mM MgCl2). Then, the cells were incubated at RT for 30 min with biotin-conjugated goat polyclonal anti-V5 antibody (Bethyl) diluted 1:100 in BE buffer supplemented with 2.5% bovine serum albumin. For antibody-mediated cross-linking, avidin was added and incubated for 15 min and washed two times with BE buffer before the experiments were performed. In Fig. 4, dcFRAP experiments are presented that employ chemical surface crosslinking to visualize assembly of FZD6 with DVL or heterotrimeric G proteins according to previously published protocols. Live cell imaging experiments were carried out using a Zeiss 710 laser scanning microscope. Images were acquired using a 40×, 1.2 NA C-Apochromat objective and the 488 nm and the 561 nm laser lines were used to excite GFP and mCherry fluorophores, respectively. Photobleaching was performed by 100% laser illumination of a 1.80 × 1.80 µm area placed over the cell plasma membrane. Fluorescence was measured pre- and post-bleach using low-intensity illumination for a total time period of 100 s. Average pixel intensity was measured using the ZEN2013 software, corrected for background fluctuations and bleaching artifacts and normalized to pre-bleached intensity. The recovered mobile fraction (F m) was calculated as follows: F m = (I P–I 0)/(I I–I 0), where I I is the initial intensity measured prior to bleaching, I 0 is the immediate fluorescence intensity post-bleaching and I P is intensity value post-bleaching. The mobile fraction was defined by the average of the fluorescence recovery assessed between time 85–101 s (including pre-bleach measurements). We excluded experiments in which the extracellularly tagged receptors were not sufficiently immobilized after the crosslinking procedure (cutoff at 40% crosslinking-induced reduction in mobile fraction). Kinetic determination of mobile fractions of crosslinked V5-FZD6-mCherry and FZD6-GFP with WNT stimulation over time were performed in one cell culture well. Measurements for each time point were performed on separate cells.
Statistical and graphical analysis was performed using Graph Pad Prism 5 software. Data were analyzed by two-tailed t-test or one-way ANOVA with Fisher’s least significant difference post hoc analysis. Curve fitting of FRAP data was done with a two-phase association nonlinear function using the least square fit. Data for receptor titration in the presence of C59 and output to P-ERK1/2 in Fig. 6h was fit to a linear regression model. All experiments were repeated at least three times in independent experiments (not representing technical replicates). For single cell analysis (dcFRAP), the number of the individual ROIs obtained from several cells in at least three independent experiments is provided in the figure legends. Data from individual ROIs are summarized for data presentation providing the sum of independent observations. Significance levels are given as: *P < 0.05; **P < 0.01; ***P < 0.001. Data in FRAP curves and bar graphs (FRAP) are presented as mean ± s.e.m.

[6] = target: T1, FZD6-TM4 (Homo sapiens, UniProt O60353); experiment: isothermal titration calorimetry of TM peptides; format: binding; conditions: 820 µM TM5 or TM5 mut into 165 µM TM4; 0.5% DDM; 20 °C; one set of sites
T1 construct: purchased Pepscan Therapeutics (Lelystad, Netherlands); host or cells: chemical synthesis (Fmoc solid phase)
T1 sequence (O60353 with tags, fused parts or gaps limits assumed): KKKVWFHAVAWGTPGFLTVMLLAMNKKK
Experimental: (§3) CD spectra were recorded using a J-810 spectropolarimeter (Jasco, Easton, MD, USA) in a 0.1 cm quartz cuvette. Far-UV CD spectra were collected over 190–260 nm. ITC measurements were carried out at 20 °C on an ITC (VP–ITC 200, MicroCal). 820 µM FZD6 TM5 and 165 µM FZD6 TM4 were dissolved in 0.5% DDM in water. 2 µl of TM5 peptide were injected into 260 µl TM4 during each titration. The ITC data were analyzed with the Origin 7.0 software.

[7] = system: TM4 peptide of FZD6; experiment: analytical size-exclusion chromatography of TM peptides; format: binding, human; conditions: TDW + 0.01% DDM; 500 µM each peptide; Superdex 30; 0.8 ml min^−1; room temperature; 215 nm; 2 h incubation
Experimental: Analytical SEC was performed on an ÄKTA Explorer with a Superdex 30 analytical column (GE Healthcare) equilibrated with TDW + 0.01% DDM. Peptides were eluted with a flow rate of 0.8 ml min^−1 at room temperature. Elution profile was monitored by UV absorbance at 215 nm. For the binding experiments, the peptides were incubated together in TDW + 0.01% DDM at room temperature for 2 h.

[8] = circular dichroism of synthetic TM peptides; format: physicochemical
Experimental: as §3
Supplementary Figure 5: Circular dichroism (CD) and isothermal titration calorimetry (ITC) experiments for structural analysis of synthetic peptides resembling TM1, 4, 5 and mutant TM5 and of peptide-peptide interactions, related to Figure 3. Synthetic peptides (for sequence see Supplementary Fig. 9) resembling TM1 (a), 4 (b), 5 (c) and mutant TM5 (d) were used for CD experiments in triple distilled water with increasing DDM concentrations (0% DDM – black, 0.01% DDM – blue, 0.1% DDM – green and 0.5% DDM – red). (c)TM5 is unstructured in TDW and begins to gain structure at 0.1% DDM. It forms a clear α-helical structure in 0.5% DDM. The triple mutated TM5 (d) forms an α-helix in a much lower DDM concentration (0.01% DDM). […]

[9] = CD, triple distilled water with 0, 0.01, 0.1, 0.5% DDM

Row | DDM concentration at which peptide begins to gain structure [8, 9] [%] | DDM concentration at which α-helix forms [8, 9] [%] | secondary structure in detergent (CD) ([8]; DDM detergent solution, lipophilic environment) | secondary structure in TDW (CD) ([8]; triple distilled water, 0% DDM, 190–260 nm) | Sequence | effect on basal P-ERK1/2 [1] | effect on thrombin-induced P-ERK1/2 [2] | membrane expression and orientation (anti-HA staining) [3] | effect on lysophosphatidic acid-induced P-ERK1/2 [4] | effect of minigene on FZD6 dimer formation [5] | ITC affinity (dissociation constant, K D) to TM4 [6] | SEC elution volume in combination with TM4 [7]
1 | – | – | – | – | KKKSFIGTVSIFCLCATLFTFLTFLIKKK [TM1 minigene] | did not affect basal ERK1/2 levels | did not observe any difference in P-ERK1/2 induction | Positive anti-HA staining in the cell membrane | did not observe any difference in P-ERK1/2 induction | – | – | –
2 | – | – | – | – | KKLDASRYFVLLPLCLCVFVGLSLLLAGIISKKK [TM5 minigene] | reduced basal P-ERK1/2 | did not observe any difference in P-ERK1/2 induction | Positive anti-HA staining in the cell membrane | did not observe any difference in P-ERK1/2 induction | perturbed dimer formation | – | –
3 | 0.1 | 0.5 | structured and α-helical | unstructured | KKLDASRYFVLLPLCLCVFVGLSLLLAGIISKKK [TM5, synthetic peptide of FZD6 transmembrane helix 5] | – | – | – | – | – | micromolar affinity; also recorded: in the micromolar range | eluted at a greater volume than TM4 and TM5 alone
4 | – | 0.01 | – | – | WKKLAASAAFVLLPLCLCVFVGLSLLLAGIISKKK [TM5 mut, TM5 peptide with D365A, R368A, Y369A mutations] | – | – | – | – | – | does not interact | did not result in a shift to a higher elution volume
